Data reported in patent publication US20150297761A1, “PEPTIDIC STRUCTURES INCORPORATING AN AMINO ACID METAL COMPLEX AND APPLICATIONS IN MAGNETIC RESONANCE IMAGING” (THE GENERAL HOSPITAL CORPORATION, priority 2012, published 2015).
Like-named read-outs stand apart in the source and are kept apart here. Each block holds one compound with its values, some of them ahead of it.

Assays:
[1] = Relaxometry of [Gd(CyPic3A)(H2O)2]− in different media; assay type: physicochemical
Method: The relaxivity of [Gd(CyPic3A)(H2O)2]^− is consistent with two inner-sphere water ligands. At 310 K in pH 7.4 50 mM HEPES buffer, r1=5.70 mM^−1 s^−1 at 1.41 T (7.53 mM^−1s^−1 at 298 K). This is 75% higher than [Gd(DTPA)(H2O)]^2− measured under these conditions (see below for detailed table of r1 values). To probe the effects of potentially coordinating anions, nwas measured in the presence of 20 equiv. carbonate or L-lactate and also in 25 mM phosphate buffer (pH 7.4).
Relaxivity measurements were performed on a Bruker mq60 or Bruker mq20 Minispec at 1.41 T and 0.47 T, respectively, and 37° C. Longitudinal (T1) relaxation was acquired via an inversion recovery experiment on 10 inversions of duration ranging between 0.05×T1 and 5×T1. Relaxivity (r1) was determined from the slope of a plot of 1/T1 vs. [Gd] for at least 4 concentrations of Gd(III). The transverse (T2) relaxation times of ^17O were acquired at 500 MHz using a CPMG pulse sequence at temperatures ranging from 278 to 368 K. Reduced relaxation rates (1/T2r) were calculated by dividing the [Gd(CyPic3A)(H2O)2]^− imparted increase in 1/T2 relative to neat H2O at pH 3 by the mole fraction of coordinated water molecules.

[2] = Kinetic inertness: Zn(II) transmetallation in phosphate buffer, followed by 1/T1; assay type: physicochemical
Source text: Kinetic inertness was also taken into account in the evaluation of potential probes. In this regard, [Gd(CyPic3A)(H2O)2]^− was challenged with 1 equiv. [ZnPO4]^− as a slurry in pH 7.0 phosphate buffer at 310 K (see below). Several clinically utilized Gd(III) complexes have been benchmarked relative to one another in this manner.^37 As Gd(III) replaced by Zn(II) precipitates from the solution as GdPO4, the relaxation rate 1/T1 decreases. In this method, the time required to reach 80% of the initial 1/T1 value was utilized as an index of kinetic inertness.
Modified conditions of Muller and co-workers were used for this experiment.^11,12 Solutions containing 2.5 mM [Gd(CyPic3A)(H2O)2]^− and 2.5 mM Zn(OTf)2 were combined in pH 7.0 phosphate buffer (50 mM) and placed in an incubator shaker set to 310 K. Progress of the transchelation was monitored via the decrease in 1/T1 with time. Prior to measurement, aliquots were placed in small glass inserts and centrifuged to bring all insoluble material to the bottom so as not to interfere with the measurement.

[3] = buffer, pH 3
Method: For comparison, we also measured transchelation from the approved contrast agents [Gd(HP-DO3A)(H2O)] (ProHance, gadoteridol) and [Gd(DTPA)(H2O)]^2− (Magnevist, gadopentetate). […] We estimated half-times for these transchelations (time to 50% of the equilibrium value).
Stock solutions of MS-325-L and GdL1, Gd2L2 and Gd3L3 were prepared in 50 mM citrate buffer at pH 3.0. MS-325-L was added to solutions of the Gd complexes and incubated at 37° C. The final concentrations of the metal complexes were 0.1 mM, while the concentration of MS-325-L was adjusted according to the amounts of Gd complexes per metallopeptide present. A 10 μL aliquot was removed for HPLC analysis and analyzed while the remainder of the solution was incubated at 37° C.

[4] = cited from earlier work
[5] = hydration state; literature (superscript refs); cited from earlier work
[6] = Relaxivity of Gd(DOTAla) metallopeptides and reference agents (T1 inversion recovery, 37° C.); assay type: physicochemical
Method: Main numbers are given per Gd, numbers in parentheses are per molecule values. All numbers were determined at 37° C. using an inversion recovery sequence at concentrations ranging from 0.05 to 0.6 mM/Gd. Table 4 in Example 2 further expands the data of Table 1.
Per Gd relaxivities were determined by measuring T1 at 37° C. using 20, 60, 200, 400 and 500 MHz spectrometers. Relaxivities for MS-325 (with and without the presence of HSA) as a reference compound with a long τR and [Gd(HP-DO3A)(H2O)] as a reference for very short τR were also measured, and all the relaxivity data is tabulated in Table 4, together with results obtained from literature for the compounds with similar estimated τR. […] Additional rigidity through cyclization seems to provide only minor relaxivity increase for the dimeric and trimeric systems (Gd2C2 and Gd3C3).
Measurement of relaxivity. Longitudinal relaxation times T1, were measured on Bruker Minispecs mq20 (0.47 T) and mq60 (1.41 T), a Bruker Bioscan horizontal bore 4.7 T, 9.4 T and 11.7 T Varian NMR spectrometers. T1 was measured by using an inversion recovery method with 10 inversion time values ranging from 0.05×T1 to 5×T1. Relaxivity was calculated from a linear plot of 3 or 4 different concentrations (ranging from 0.01 to 0.5 mM, depending on amount of compound isolated) versus the corresponding inverse relaxation times. All samples were measured at 37° C. using either the internal temperature control of the instrument (0.47, 1.41, 9.4 and 11.7 T) or a warm air blower (4.7 T). MS-325/HSA was prepared in a 4.5% w/v solution of HSA (0.66 mM) in PBS. The MS-325 concentration (in presence of HSA) ranged from 0.05 to 0.15 mM.

[7] = Ligand challenge, equilibrium constant Kcomp of [Gd(DTPA)(H2O)]2− vs. L; assay type: physicochemical; settings: pH 7.4
Method: As a means of assessing thermodynamic stability relative to other Gd(III)-complexes, [Gd(CyPic3A)(H2O)2]^− was challenged with DTPA in pH 7.4 25 mM Tris buffer. […] From this information it was possible to deduce equilibrium constants (Kcomp) for the competition reaction described in Equation 5,^31 where L=DTPA and L′=challenging chelator.
(§1) Equilibration of each solution was monitored by LC-MS. Relative distributions of [Gd(CyPic3A)(H2O)2]^− and CyPic3A were determined by integrating the corresponding absorbance traces at 280 nm. […] Kcomp values determined between [Gd(DTPA)(H2O)]^2− and various ligands were determined from conditional formation constants (Kcond)^4 values taken from the literature.^6-16 Direct comparisons were only made between Kcond values determined under identical conditions.

[8] = Ligand challenge, equilibrium constant Kcomp of MS-325 vs. L; assay type: physicochemical; settings: obtained through ligand challenge
Method: as §1

[9] = Ligand challenge, equilibrium constant Kcomp of [Gd(DTPA)(H2O)]2− vs. L; assay type: physicochemical; settings: obtained through ligand challenge
[10] = 0.47 T, 310 K, literature (superscript refs)

r1 1.41 T 310K [1]: 3.26 mM⁻¹ s⁻¹
r1 ([1]; 1.41 T, 310 K, pH 7.4 50 mM HEPES buffer): 3.26 mM⁻¹ s⁻¹
time to 80% of the initial 1/T1 ([2]; 1 equiv. Zn(II), pH 7.0 phosphate buffer, 310 K): 383 min
t1/2 [h], Gd transchelation to MS-325 [3]: 0.42 ± 0.18 h
Compound: O=C([O-])CN(CCN(CC(=O)[O-])CC(=O)O)CCN(CC(=O)[O-])CC(=O)O.[Gd+3] [[Gd(DTPA)(H2O)]^2−, gadopentetate]
r1 0.47 T 298K ([4]; 0.47 T, 298 K, literature (superscript refs)): 4.3^16 mM^−1s^−1
r1 0.47 T 310K [4, 10]: 3.4^17 mM^−1s^−1
q [5]: 1^16

Compound: CC(O)CN1CCN(CC(=O)[O-])CCN(CC(=O)[O-])CCN(CC(=O)[O-])CC1.[Gd+3] (stereo not shown) [[Gd(HP-DO3A)(H2O)], gadoteridol, reference compound]
Relaxivity per Gd, 20 MHz ([6]; 20 MHz): 4.3 mM⁻¹ s⁻¹
Relaxivity per Gd, 60 MHz ([6]; 60 MHz): 3.2 mM⁻¹ s⁻¹
Relaxivity per Gd, 200 MHz ([6]; 200 MHz): 3.6 mM⁻¹ s⁻¹
Relaxivity per Gd, 400 MHz ([6]; 400 MHz (9.4 T)): 3.0 mM⁻¹ s⁻¹
Relaxivity per Gd, 500 MHz ([6]; 500 MHz): 2.9 mM⁻¹ s⁻¹
r1 [0.47 T], per Gd ([6]; per Gd, 0.47 T): 4.33 mM⁻¹ s⁻¹
r1 [1.4 T], per Gd ([6]; per Gd, 1.4 T): 3.21 mM⁻¹ s⁻¹
r1 [9.4 T], per Gd ([6]; per Gd, 9.4 T): 3.03 mM⁻¹ s⁻¹
r1 [11.7 T], per Gd ([6]; per Gd, 11.7 T): 2.94 mM⁻¹ s⁻¹
t1/2 [h], Gd transchelation to MS-325 [3]: 91 ± 6 h
r1 0.47 T 310K [4, 10]: 3.1^17 mM^−1s^−1
r1 1.41 T 310K ([4]; cell says 1.5 T, 310 K, literature (ref 17)): 2.9 (1.5 T)^17 mM^−1s^−1
q [5]: 1^16

affinity for Gd(III) lower than DTPA [7]: about 5 fold
Time to 80% r1 ([2]; Zn(II) challenge of the Gd(III) complex of L, this work): 95 min
Kcomp MS-325 vs. L pH 4 ([8]; pH 4): 0.031
Kcomp MS-325 vs. L pH 7.4 ([8]; pH 7.4): 0.56
Kcomp [Gd(DTPA)(H2O)]^2- vs. L pH 4 [9]: 0.18
Compound: N-((6-methylpicol-2-yl)methyl)-N,N′,N′-triacetate-trans-1,2-diaminocyclohexane [CyPic3A]
